Data published in PMC11685595, “Measuring plant cysteine oxidase interactions with substrates using intrinsic tryptophan fluorescence” (Scientific Reports, 2024).
Peptide text beside a SMILES is read from it.

Columns and labels:
AtPCO5.Ni(II) = molecular target: T1, AtPCO5.Ni(II) (Arabidopsis thaliana, UniProt Q9LXT4); experiment: Plate-based intrinsic Trp fluorescence quenching binding assay, AtPCO5.Ni(II); conditions: 8 µM AtPCO5.Ni(II) (enzyme:metal 1:2), 0-750 µM peptide, anaerobic, 10 min, 25 °C, 50 mM Tris pH 7.5, 0.4 M NaCl, λex/λem 280/350 nm; ± Std. Error of fit, n = 3
T1 construct: His6 (cleaved yes); made in house
Method: (§1) Following affinity purification, the His6-tag was cleaved using TEV protease and the cleaved tag was removed using a HisTrap HP column (GE Healthcare). To remove the active site metal which co-purifies with PCO enzymes, concentrated protein fractions were dialysed into 50 mM Tris (pH 7.5), 0.4 M NaCl, 100 mM EDTA and 10 mM 1,10-Phenanthroline followed by dialysis into 50 mM Tris (pH 7.5), 0.4 M NaCl and 0.1% (w/v) Chelex® 100 resin to remove excess EDTA and 1,10-Phenanthroline. Dialysed protein was then purified with a HiLoad 26/600 Superdex 75 prep grade size exclusion column (GE Healthcare) equilibrated with 50 mM Tris (pH 7.5) and 0.4 M NaCl (herein termed assay buffer). Protein purity was assessed with SDS-PAGE. To check that Fe(II) was removed, activity assays of metal-removed protein were conducted as described previously.
(§2) Metal-removed AtPCO4/5 was incubated with Ni(II) (NiCl2.6H2O, Alfa Aesar) at enzyme:metal, 1:2 ratio and diluted to the desired volume in assay buffer to a final enzyme concentration of 8 µM, termed the enzyme master mix.

AtPCO4.Ni(II) = molecular target: T2, AtPCO4.Ni(II) (Arabidopsis thaliana, UniProt Q9SJI9); experiment: Plate-based intrinsic Trp fluorescence quenching binding assay, AtPCO4.Ni(II); conditions: 8 µM AtPCO4.Ni(II) (enzyme:metal 1:2), 0-750 µM peptide, anaerobic, 10 min, 25 °C, 50 mM Tris pH 7.5, 0.4 M NaCl, λex/λem 280/350 nm; ± Std. Error of fit, n = 3
T2 construct: His6 (cleaved yes); made in house
Method: as §1, §2

T1 sequence (Q9LXT4 whole entry): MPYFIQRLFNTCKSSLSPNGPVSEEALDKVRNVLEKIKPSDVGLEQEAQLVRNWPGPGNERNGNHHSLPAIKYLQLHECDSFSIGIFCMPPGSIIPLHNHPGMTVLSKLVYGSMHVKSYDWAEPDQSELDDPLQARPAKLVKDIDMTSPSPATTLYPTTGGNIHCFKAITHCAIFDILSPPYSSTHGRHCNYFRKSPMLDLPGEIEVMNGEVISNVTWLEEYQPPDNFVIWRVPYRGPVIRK

`CC[C@H](C)[C@H](NC(=O)[C@H](C)NC(=O)CNC(=O)CNC(=O)[C@@H](N)CS)C(=O)N[C@@H](CC(C)C)C(=O)N[C@@H](CO)C(=O)N[C@@H](CC(=O)O)C(=O)N[C@H](C(=O)N[C@H](C(=O)N[C@@H](C)C(=O)N1CCC[C@H]1C(=O)N[C@@H](CO)C(=O)N[C@@H](C)C(=O)O)[C@@H](C)CC)[C@@H](C)CC` [HRE1_2-15] (H-CGGAILSDIIAPSA-OH) was tested. Which Kd (AtPCO5.Ni(II)) did it give?
The Kd was 223 ± 10.3 µM.

And the Kd (AtPCO4.Ni(II))?
Its Kd is 298 ± 37.7 µM.
